These results are taken from patent publication US8242159B2, “1,3-dihydro-5-isobenzofurancarbonitrile derivatives and pharmaceutical composition thereof for the treatment of premature ejaculation” (Dong-A Pharmaceutical. Co., Ltd, priority 2007, dated 2012).

A value given as a limit tells only on which side of the number the result lay.

By IC50 is commonly meant the concentration that inhibits the measured activity by half. For orientation: Tmax means the time at which the peak concentration occurs. For orientation: half-life means the time in which the quantity being followed falls by half.

Data set [1] deals with T1, 5-HT2C receptor (Homo sapiens, UniProt P28335).
T1 construct: expressed in transfected cells; host or cells: CHO-K1 cells
T1 sequence (P28335 33-458): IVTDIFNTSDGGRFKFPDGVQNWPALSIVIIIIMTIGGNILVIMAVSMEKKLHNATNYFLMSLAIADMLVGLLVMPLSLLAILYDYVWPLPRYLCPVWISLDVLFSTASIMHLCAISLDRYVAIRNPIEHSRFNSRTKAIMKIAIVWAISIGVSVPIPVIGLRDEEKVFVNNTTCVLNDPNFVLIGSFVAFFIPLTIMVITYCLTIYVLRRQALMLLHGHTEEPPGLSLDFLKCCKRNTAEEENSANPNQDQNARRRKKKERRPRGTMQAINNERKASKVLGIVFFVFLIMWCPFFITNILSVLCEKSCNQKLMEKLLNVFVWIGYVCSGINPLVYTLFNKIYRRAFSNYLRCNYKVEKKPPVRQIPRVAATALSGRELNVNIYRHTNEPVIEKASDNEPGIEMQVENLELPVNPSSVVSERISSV
Nature of the data set: Radioligand competitive binding assay, [3H]Mesulergine. Particulars: human-derived recombinant CHO-K1 cells. The method, then:
(§1) In addition, ligand binding to 5HT1A, 5-HT1B and 5-HT2C receptors and 5-HT transporter was evaluated with human-derived recombinant CHO cells, Wistar rat-derived cerebral cortical cells, human-derived recombinant CHO-K1 cells, and human-derived recombinant HEK-293 cells. Each cell line was dosed with 10^−5 μM to 10^4 μM of the compounds of Examples 2, 35, 40 and 45, and then incubated with a radio-labeled ligand for competitive binding. Ligands used were […], [^125I]Cyanopindolol, [^3H]Mesulergine and [^3H]Paroxetine, respectively. The competitive binding assay was carried out in 50 mM Tris-HCl buffer at 25° C. or 37° C., for 60 to 90 min.

For data set [2], the target named is T2, 5-HT transporter (Homo sapiens, UniProt P31645).
T2 construct: expressed in transfected cells; host or cells: HEK-293 cells
Kind of data set: Radioligand competitive binding assay, [3H]Paroxetine. The following applies: human-derived recombinant HEK-293 cells. The method, then: as §1

For data set [3], the system named is cellular uptake of norepinephrine. Nature of the data set: Cellular reuptake assay, [3H]norepinephrine. Particulars: 10 min, MDCK cell line. Type of data set: cell-based. As for the experimental part:
(§2) First, the effects of the present compounds on cellular uptake of dopamine, norepinephrine and serotonin were evaluated with human-derived CHO-1, MDCK and HEK-293 cell lines. Each cell line was dosed with 10^−5 μM to 10^4 μM of the compounds of Examples 2, 35, 40 and 45, and then incubated with [^3H]dopamine, [^3H]norepinephrine and [^3H]serotonin in buffer. After 10 min, the amount of each neurotransmitter taken up into cells was determined by counting radioactivity using a liquid scintillation counter (LSC).

Data set [4] deals with cellular uptake of dopamine. Kind of data set: Cellular reuptake assay, [3H]dopamine. Type of data set: cell-based. The following applies: 10 min, CHO-1 cell line. The method, then: as §2
In data set [5] the test system is Salmonella typhimurium TA98, 100, 1535, 1537, E. coli WP2 uvrA. Kind of data set: Mutagenicity test: Ames test. Particulars: 8, 40, 200, 1000, 2500, 5000 μg/plate, presence/absence of a metabolic activation system. Type of data set: cell-based. As for the experimental part:
(§3) To evaluate the safety of the present derivatives, mutagenicity test was conducted. Ames test and chromosome aberration test were conducted with the examples 2, 35, 40 and 45.

The target in data set [6] is hERG (human Ether-a-go-go Related Gene) (Homo sapiens, UniProt Q12809). Nature of the data set: Cardiotoxicity test, hERG assay (MDS Pharma). An excerpt:
To evaluate the safety of the present derivatives in comparison with control drug, conducted was hERG (human Ether-a-go-go Related Gene) assay which is a representative test of safety medical test. This test was requested to trial institute MDS Pharma., which conducted this test.
For orientation: Block of hERG is tested as a sign of cardiac risk.

Data set [7] concerns the target T3, 5HT1A receptor (Homo sapiens, UniProt P08908).
T3 construct: expressed in transfected cells; host or cells: CHO cells
T3 sequence (P08908 1-422): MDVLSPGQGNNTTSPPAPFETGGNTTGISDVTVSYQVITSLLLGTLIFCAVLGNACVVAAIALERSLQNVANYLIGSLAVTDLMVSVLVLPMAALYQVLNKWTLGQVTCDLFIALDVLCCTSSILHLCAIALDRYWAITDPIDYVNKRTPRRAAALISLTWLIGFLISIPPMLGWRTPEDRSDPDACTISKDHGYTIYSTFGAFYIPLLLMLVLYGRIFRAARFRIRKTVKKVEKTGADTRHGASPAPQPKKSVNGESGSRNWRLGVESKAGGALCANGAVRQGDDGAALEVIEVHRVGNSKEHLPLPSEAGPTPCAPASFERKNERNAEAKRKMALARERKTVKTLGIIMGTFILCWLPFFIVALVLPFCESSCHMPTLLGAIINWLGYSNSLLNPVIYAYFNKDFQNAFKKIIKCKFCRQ
Nature of the data set: Radioligand competitive binding assay. Particulars: human-derived recombinant CHO cells. As for the experimental part: as §1

The test system of data set [8] is CHL (Chinese Hamster Lung) cell. Kind of data set: Mutagenicity test: chromosome aberration test. Particulars: 75, 150, 300 μg/ml with metabolic activation; 20, 40, 80 μg/ml without. Type of data set: cell-based. The method, then:
as §3

The subject of data set [9] is cellular uptake of serotonin. Nature of the data set: Cellular reuptake assay, [3H]serotonin. The format is cell-based. The following applies: Homo sapiens, HEK293, 10 min, HEK-293 cell line. As for the experimental part:
as §2

The nature of data set [10]: Determination of half-lives of the compounds in rats (oral, plasma HPLC). Type of data set: in vivo. The following applies: rat, male Sprague-Dawley rats, 10 mg/kg (text also says 5 mg/kg), 0.5% methylcellulose. The method, then: The half-lives of present compounds were determined as follows. Each compound was administered orally to male Sprague-Dawley rats weighing approximately 270 g at a dose of 10 mg/kg. 5 mg/kg of each compound was suspended in 0.5% methyl-cellulose and then administered to rats. Blood samples were collected 0.017, 0.083, 0.25, 0.5, 1, 2, 3, 5, 7 and 24 hours after administration, and centrifuged at 1,000 rpm for 3 min to separate plasma. The concentration of each compound in plasma was determined using high performance liquid chromatography, which was performed with a mobile phase of 10 mM ammonium formate (pH 3.0) and acetonitrile (50:50), an […] column (21×100 mm, 3 μm) and a flow rate of 0.2 ml/min.

Data set [11] deals with Sprague-Dawley (SD) rats. Kind of data set: Acute toxicity test, single dose, mortality. Type of data set: in vivo, rat. Also noted: unit not given here. The source says:
The present derivatives and citalopram were individually administered orally and intra-venously to SD rats at a single dose.

Data set [12] concerns the target T4, 5-HT1B receptor (Rattus norvegicus, UniProt P28564).
T4 construct: Wistar rat-derived cerebral cortical cells; from tissue; host or cells: Wistar rat cerebral cortex
Kind of data set: Radioligand competitive binding assay, [125I]Cyanopindolol. Particulars: Wistar rat-derived cerebral cortical cells. As for the experimental part: as §1

Data set [13] concerns Male Wistar rats. Nature of the data set: p-PCA-induced ejaculation in anesthetized rats (ejaculation-delaying effect). Particulars: for Ratio: Number of responding animals/total animal number: 50 mg/kg oral in 1% HPMC, p-PCA 5 mg/kg i.p. 80 min later, observed 30 min; for Latency: Time to display the ejaculatory response: 50 mg/kg oral, p-PCA 5 mg/kg i.p., mean ± standard deviation of responding rats. The format is in vivo, rat. The method in brief: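 Male Wistar rats (240-260 g) received compound orally at 50 mg/kg in 1% HPMC, were anesthetized 60 min later, and 20 min after that were given p-PCA 5 mg/kg i.p. to induce ejaculation. Scored as rhythmic bulbocavernosus contraction plus semen discharge, with six or more animals per compound versus vehicle.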

Data set [14] relates to Salmonella typhimurium TA98, 100, 1535, 1537, E. coli WP2 uvrA. The following applies: reported 'in the same test'; which test is not specified; cited from earlier work.

T2 sequence (P31645 whole entry): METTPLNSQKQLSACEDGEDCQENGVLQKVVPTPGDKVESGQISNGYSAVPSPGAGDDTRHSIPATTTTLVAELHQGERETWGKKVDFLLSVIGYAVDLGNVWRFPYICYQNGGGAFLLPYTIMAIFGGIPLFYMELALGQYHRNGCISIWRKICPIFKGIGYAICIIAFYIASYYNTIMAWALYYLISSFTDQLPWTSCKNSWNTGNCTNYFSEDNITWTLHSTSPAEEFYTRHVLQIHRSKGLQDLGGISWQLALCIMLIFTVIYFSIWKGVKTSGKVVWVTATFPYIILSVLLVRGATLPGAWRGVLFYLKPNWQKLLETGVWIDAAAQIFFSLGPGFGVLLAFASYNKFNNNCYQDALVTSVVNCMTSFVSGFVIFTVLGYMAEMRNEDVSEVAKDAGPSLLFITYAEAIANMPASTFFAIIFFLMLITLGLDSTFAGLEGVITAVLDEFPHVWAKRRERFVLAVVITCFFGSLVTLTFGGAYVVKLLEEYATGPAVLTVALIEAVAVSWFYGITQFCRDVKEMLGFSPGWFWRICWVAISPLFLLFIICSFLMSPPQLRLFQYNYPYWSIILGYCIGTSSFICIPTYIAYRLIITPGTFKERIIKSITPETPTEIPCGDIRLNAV
T4 sequence (P28564 whole entry): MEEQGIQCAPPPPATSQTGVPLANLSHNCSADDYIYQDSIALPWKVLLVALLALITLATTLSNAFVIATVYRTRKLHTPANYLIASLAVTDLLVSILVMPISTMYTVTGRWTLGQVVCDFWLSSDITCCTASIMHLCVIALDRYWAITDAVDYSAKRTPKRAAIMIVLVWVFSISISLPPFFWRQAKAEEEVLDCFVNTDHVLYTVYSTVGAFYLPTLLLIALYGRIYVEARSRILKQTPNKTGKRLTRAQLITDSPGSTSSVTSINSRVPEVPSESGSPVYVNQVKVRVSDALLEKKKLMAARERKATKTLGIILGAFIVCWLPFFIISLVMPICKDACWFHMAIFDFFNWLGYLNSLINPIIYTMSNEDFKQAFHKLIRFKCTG
Chain of hERG (human Ether-a-go-go Related Gene) (Q12809 whole entry): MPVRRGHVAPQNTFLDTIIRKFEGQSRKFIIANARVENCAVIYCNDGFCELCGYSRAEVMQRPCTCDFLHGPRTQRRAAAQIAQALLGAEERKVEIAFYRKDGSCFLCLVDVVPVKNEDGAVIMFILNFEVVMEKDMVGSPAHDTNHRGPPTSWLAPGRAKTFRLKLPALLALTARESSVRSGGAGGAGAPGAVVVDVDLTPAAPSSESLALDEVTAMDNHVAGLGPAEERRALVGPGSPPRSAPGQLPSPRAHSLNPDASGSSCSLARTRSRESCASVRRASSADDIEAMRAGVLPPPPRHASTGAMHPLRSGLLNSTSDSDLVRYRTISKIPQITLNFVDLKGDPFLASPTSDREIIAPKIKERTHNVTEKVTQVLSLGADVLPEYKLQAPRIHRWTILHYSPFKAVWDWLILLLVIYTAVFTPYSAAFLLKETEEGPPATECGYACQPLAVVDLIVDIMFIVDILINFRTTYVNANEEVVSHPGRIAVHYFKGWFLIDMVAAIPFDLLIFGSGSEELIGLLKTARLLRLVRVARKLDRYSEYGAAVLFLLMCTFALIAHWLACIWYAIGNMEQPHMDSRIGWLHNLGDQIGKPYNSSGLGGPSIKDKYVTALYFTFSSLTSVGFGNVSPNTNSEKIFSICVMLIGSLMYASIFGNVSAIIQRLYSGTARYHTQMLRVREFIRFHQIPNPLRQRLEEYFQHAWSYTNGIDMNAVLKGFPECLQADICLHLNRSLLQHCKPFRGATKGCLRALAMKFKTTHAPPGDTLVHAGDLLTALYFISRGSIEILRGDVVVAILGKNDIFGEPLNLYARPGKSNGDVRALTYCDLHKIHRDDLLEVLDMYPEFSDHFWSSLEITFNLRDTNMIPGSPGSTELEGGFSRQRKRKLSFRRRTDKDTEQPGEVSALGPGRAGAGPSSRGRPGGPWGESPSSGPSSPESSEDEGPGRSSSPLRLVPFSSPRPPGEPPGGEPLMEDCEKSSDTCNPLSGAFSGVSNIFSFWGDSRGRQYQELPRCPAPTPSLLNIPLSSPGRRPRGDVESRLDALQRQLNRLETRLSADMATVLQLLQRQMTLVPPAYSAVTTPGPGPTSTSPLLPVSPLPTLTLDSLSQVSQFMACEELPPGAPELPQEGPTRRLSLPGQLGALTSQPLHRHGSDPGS

Take `COc1ccc(C2(CCCN(C)C)OCc3cc(C#N)ccc32)cc1.O=C(O)C(=O)O` (stereo not drawn) [Ex. 2, 1-{3-(dimethylamino)propyl}-1-(4-methoxyphenyl)-1,3-dihydro-5-isobenzofurancarbonitrile oxalate]: the IC50 was 7.12 µM in [1]; less than 0.0001 µM in data set [2]; 36.5 µM in data set [3]; 85.7 µM in data set [4]; 19.4 µM in data set [6]; 805 µM in data set [7]. The IC50 in [9] is 0.304 µM; in data set [12], greater than 1000 µM. Besides, the Ames test result in data set [5] is reported as “negative”. Moreover, the “chromosome aberration test result” value in [8] is recorded as “negative”. The Tmax in [10] is 19.8 min. In addition, the half-life in data set [10] was 76.8 min. In addition, the minimum lethal dose in data set [11] (Intravenously, female SD rats) is 70; in data set [11] (Intravenously, male SD rats) it was 70; in data set [11] (Orally, female SD rats), 1000; in data set [11] (Orally, male SD rats) it was 1000. In addition, the “Ratio: Number of responding animals/total animal number” value in data set [13] was 0/9.

In the case of `N#Cc1ccc2c(c1)COC2(CCCn1ccnc1)c1cccs1.O=C(O)C(=O)O` (stereo not drawn) [Ex. 45, 1-{3-(imidazole-1-yl)propyl}-1-(2-thienyl)-1,3-dihydro-5-isobenzofurancarbonitrile oxalate], the 50% inhibitory concentration (IC50) in data set [1] was 8.88 µM; in [2] it was 0.0087 µM; in data set [3], 67.3 µM; in data set [4], 94.2 µM; in [6], 10.6 µM; in data set [7] it was 898 µM. In addition, the IC50 in [9] was 0.465 µM; in [12], greater than 1000 µM. Besides, the Ames test result in data set [5] was “negative”. In addition, the “chromosome aberration test result” value in [8] is reported as “negative”. For the same compound, the time of peak concentration (Tmax) in data set [10] came to 15 min. Moreover, the half-life in data set [10] is 63.6 min. For the same compound, the minimum lethal dose in data set [11] (Intravenously, female SD rats) amounted to 50; in data set [11] (Intravenously, male SD rats), 50; in [11] (Orally, female SD rats) it was 1000; in [11] (Orally, male SD rats) it was 1000. Further, in [13], the “Ratio: Number of responding animals/total animal number” value is 2/9. For the same compound, in [13], the “Latency: Time to display the ejaculatory response” value is 676 ± 10 s.

Consider `CN(C)CCCC1(c2cccs2)OCc2cc(C#N)ccc21.O=C(O)C(=O)O` (stereo not drawn) [Ex. 40, 1-{3-(dimethylamino)propyl}-1-(2-thienyl)-1,3-dihydro-5-isobenzofurancarbonitrile oxalate], for which the 50% inhibitory concentration (IC50) turned out to be 10.1 µM in [1]; 0.0125 µM in data set [2]; 69.1 µM in data set [3]; 124 µM in data set [4]; 8.7 µM in data set [6]; 967 µM in [7]. Besides, the results for the IC50 in data set [9] and in [12] were 0.531 µM and greater than 1000 µM, respectively. Besides, the Ames test result in data set [5] is reported as “negative”. Further, the “chromosome aberration test result” value in data set [8] is reported as “negative”. For the same compound, in data set [10], the Tmax came out at 15 min. This compound also showed a half-life in data set [10] of 75.6 min. Moreover, the minimum lethal dose in [11] (Intravenously, female SD rats) was found to be 50; in data set [11] (Intravenously, male SD rats), 50; in data set [11] (Orally, female SD rats), 800; in data set [11] (Orally, male SD rats), 800. Besides, the “Ratio: Number of responding animals/total animal number” value in data set [13] is reported as 3/9. Further, in data set [13], the “Latency: Time to display the ejaculatory response” value was found to be 876 ± 110 s.

Regarding `CN(C)CCCC1(c2ccc(F)cc2)OCc2cc(C#N)ccc21` (stereo not drawn) [Citalopram, reference compound], in data set [14], the “mutagenicity test result as reported” value is recorded as “positive”. Besides, in data set [10], the Tmax stood at 19.8 min. The compound also gave a half-life in data set [10] of 194 min. Also, the minimum lethal dose in data set [11] (Intravenously, female SD rats) was 30; in data set [11] (Intravenously, male SD rats) it was 30; in data set [11] (Orally, female SD rats), 650; in data set [11] (Orally, male SD rats) it was 650.
